System: HIV in the HTLV-1 transformed cell line MT-4
Test: organism not typed
Format: cell-based
Conditions: MT4, 96 h, MT-4 cells; luciferase/cell titer glo readout after 96 hours; 10 point dose response

Cc1ccc(-c2c(C)c3c(c(C)c2[C@H](OC(C)(C)C)C(=O)O)CN(C(=O)N2CCCOCC2)C3)cc1 [Example 76, (2S)-2-(tert-butoxy)-2-[4,7-dimethyl-6-(4-methylphenyl)-2-(1,4-oxazepane-4-carbonyl)-2,3-dihydro-1H-isoindol-5-yl]acetic acid]
IC50: 12 nM

COc1cc(C(=O)N2Cc3c(C)c(-c4ccc(C)cc4)c([C@H](OC(C)(C)C)C(=O)O)c(C)c3C2)ccc1C [Example 222, (S)-2-(tert-butoxy)-2-(2-(3-methoxy-4-methylbenzoyl)-4,7-dimethyl-6-(p-tolyl)isoindolin-5-yl)acetic acid]
IC50: 4 nM

Cc1ccc(-c2c(C)c3c(c(C)c2[C@H](OC(C)(C)C)C(=O)O)CN(C(=O)N2C[C@H](C)OC[C@H]2C)C3)cc1 [Example 88, (S)-2-(tert-butoxy)-2-(2-((2S,5R)-2,5-dimethylmorpholine-4-carbonyl)-4,7-dimethyl-6-(p-tolyl)isoindolin-5-yl)acetic acid]
IC50: 18 nM

Cc1ccc(-c2c(C)c3c(c(C)c2[C@H](OC(C)(C)C)C(=O)O)CN(C(=O)c2cc(Cl)c(F)c(Cl)c2)C3)cc1 [Example 281, (S)-2-(tert-butoxy)-2-(2-(3,5-dichloro-4-fluorobenzoyl)-4,7-dimethyl-6-(p-tolyl)isoindolin-5-yl)acetic acid]
IC50: 17 nM

Cc1ccc(-c2c(C)c3c(c(C)c2[C@H](OC(C)(C)C)C(=O)O)CN(C(=O)C(C)(C)C)C3)cc1 [Example 109, (S)-2-(tert-butoxy)-2-(4,7-dimethyl-2-pivaloyl-6-(p-tolyl)isoindolin-5-yl)acetic acid]
IC50: 36 nM

Cc1ccc(-c2c(C)c3c(c(C)c2[C@H](OC(C)(C)C)C(=O)O)CN(C(=O)NC2CCC(C)CC2)C3)cc1 (stereo partly drawn) [Example 54, (2S)-2-(tert-butoxy)-2-[4,7-dimethyl-6-(4-methylphenyl)-2-{[(1r,4r)-4-methylcyclohexyl]carbamoyl}-2,3-dihydro-1H-isoindol-5-yl]acetic acid]
IC50: 288 nM

COc1ccc(C(=O)N2Cc3c(C)c(-c4cc(F)c5c(c4C)CCCO5)c([C@H](OC(C)(C)C)C(=O)O)c(C)c3C2)cc1C (atropisomer, axis not shown; (M)) [Example 192, (S)-2-(tert-butoxy)-2-((M)-6-(8-fluoro-5-methylchroman-6-yl)-2-(4-methoxy-3-methylbenzoyl)-4,7-dimethylisoindolin-5-yl)acetic acid]
IC50: 5 nM

COc1ccc(CN2Cc3c(C)c(-c4ccc(C)cc4)c([C@H](OC(C)(C)C)C(=O)O)c(C)c3C2)cc1 [Example 19, (S)-2-(tert-butoxy)-2-(2-(4-methoxybenzyl)-4,7-dimethyl-6-(p-tolyl)isoindolin-5-yl)acetic acid]
IC50: 340 nM

Cc1ccc(-c2c(C)c3c(c(C)c2[C@H](OC(C)(C)C)C(=O)O)CN(Cc2cccc(F)c2C)C3)cc1 [Example 47, (2S)-2-(tert-butoxy)-2-{2-[(3-fluoro-2-methylphenyl)methyl]-4,7-dimethyl-6-(4-methylphenyl)-2,3-dihydro-1H-isoindol-5-yl}acetic acid]
IC50: 44 nM

COc1cc(C(=O)N2Cc3c(C)c(-c4ccc(C)cc4)c([C@H](OC(C)(C)C)C(=O)O)c(C)c3C2)ccc1F [Example 251, (S)-2-(tert-butoxy)-2-(2-(4-fluoro-3-methoxybenzoyl)-4,7-dimethyl-6-(p-tolyl)isoindolin-5-yl)acetic acid]
IC50: 3 nM

COc1cccc(C(=O)N2Cc3c(C)c(-c4cc(F)c5c(c4C)CCCO5)c([C@H](OC(C)(C)C)C(=O)O)c(C)c3C2)c1 (atropisomer, axis not shown; (M)) [Example 159, (S)-2-(tert-butoxy)-2-(6-((M)-8-fluoro-5-methylchroman-6-yl)-2-(3-methoxybenzoyl)-4,7-dimethylisoindolin-5-yl)acetic acid]
IC50: 2 nM

COC1CCC(C(=O)N2Cc3c(C)c(-c4ccc(C)cc4)c([C@H](OC(C)(C)C)C(=O)O)c(C)c3C2)CC1 (stereo partly drawn) [Example 116, (S)-2-(tert-butoxy)-2-(2-(4-methoxycyclohexanecarbonyl)-4,7-dimethyl-6-(p-tolyl)isoindolin-5-yl)acetic acid]
IC50: 31 nM

Cc1ccc(-c2c(C)c3c(c(C)c2[C@H](OC(C)(C)C)C(=O)O)CN(C(=O)c2cc(F)cc(Cl)c2)C3)cc1 [Example 226, (S)-2-(tert-butoxy)-2-(2-(3-chloro-5-fluorobenzoyl)-4,7-dimethyl-6-(p-tolyl)isoindolin-5-yl)acetic acid]
IC50: 5 nM

COc1cccc(C(=O)N2Cc3c(C)c(-c4cc(F)c5c(c4C)CCCO5)c([C@H](OC(C)(C)C)C(=O)O)c(C)c3C2)c1C (atropisomer, axis not shown; (M)) [Example 139, (S)-2-(tert-butoxy)-2-((M)-6-(8-fluoro-5-methylchroman-6-yl)-2-(3-methoxy-2-methylbenzoyl)-4,7-dimethylisoindolin-5-yl)acetic acid]
IC50: 37 nM

Cc1ccc(-c2c(C)c3c(c(C)c2[C@H](OC(C)(C)C)C(=O)O)CN(C(=O)c2ccc(C)c(F)c2)C3)cc1 [Example 115, (S)-2-(tert-butoxy)-2-(2-(3-fluoro-4-methylbenzoyl)-4,7-dimethyl-6-(p-tolyl)isoindolin-5-yl)acetic acid]
IC50: 6 nM

Cc1ccc(-c2c(C)c3c(c(C)c2[C@H](OC(C)(C)C)C(=O)O)CN(C(=O)NCC(C)(C)C)C3)cc1 [Example 74, (2S)-2-(tert-butoxy)-2-{2-[(2,2-dimethylpropyl)carbamoyl]-4,7-dimethyl-6-(4-methylphenyl)-2,3-dihydro-1H-isoindol-5-yl}acetic acid]
IC50: 21 nM

Cc1c(-c2c(C)c3c(c(C)c2[C@H](OC(C)(C)C)C(=O)O)CN(C(=O)c2cccc(F)c2F)C3)cc(F)c2c1CCCO2 (atropisomer, axis not shown; (M)) [Example 176, (S)-2-(tert-butoxy)-2-((M)-2-(2,3-difluorobenzoyl)-6-(8-fluoro-5-methylchroman-6-yl)-4,7-dimethylisoindolin-5-yl)acetic acid]
IC50: 4 nM

Cc1ccc(-c2c(C)c3c(c(C)c2[C@H](OC(C)(C)C)C(=O)O)CN(C(=O)N2CCC[C@H]2C)C3)cc1 [Example 292, (S)-2-(tert-butoxy)-2-(4,7-dimethyl-2-((R)-2-methylpyrrolidine-1-carbonyl)-6-(p-tolyl)isoindolin-5-yl)acetic acid]
IC50: 5 nM

Cc1c(-c2c(C)c3c(c(C)c2[C@H](OC(C)(C)C)C(=O)O)CN(C(=O)c2cccc4c2OCO4)C3)cc(F)c2c1CCCO2 (atropisomer, axis not shown; (M)) [Example 138, (S)-2-((M)-2-(benzo[d][1,3]dioxole-4-carbonyl)-6-(8-fluoro-5-methylchroman-6-yl)-4,7-dimethylisoindolin-5-yl)-2-(tert-butoxy)acetic acid]
IC50: 2 nM

Cc1ccc(-c2c(C)c3c(c(C)c2[C@H](OC(C)(C)C)C(=O)O)CN(C(=O)N2CCC(F)CC2)C3)cc1 [Example 89, (S)-2-(tert-butoxy)-2-(2-(4-fluoropiperidine-1-carbonyl)-4,7-dimethyl-6-(p-tolyl)isoindolin-5-yl)acetic acid]
IC50: 11 nM

CC(=O)N1CCN(C(=O)N2Cc3c(C)c(-c4ccc(C)cc4)c([C@H](OC(C)(C)C)C(=O)O)c(C)c3C2)CC1 [Example 85, (S)-2-(2-(4-acetylpiperazine-1-carbonyl)-4,7-dimethyl-6-(p-tolyl)isoindolin-5-yl)-2-(tert-butoxy)acetic acid]
IC50: 120 nM

Cc1ccc(-c2c(C)c3c(c(C)c2[C@H](OC(C)(C)C)C(=O)O)CN(C(=O)N2CCCC[C@@H]2C)C3)cc1 [Example 293, (S)-2-(tert-butoxy)-2-(4,7-dimethyl-2-((S)-2-methylpiperidine-1-carbonyl)-6-(p-tolyl)isoindolin-5-yl)acetic acid]
IC50: 4 nM

Cc1ccc(-c2c(C)c3c(c(C)c2[C@H](OC(C)(C)C)C(=O)O)CN(C(=O)c2ccc(C)nc2)C3)cc1 [Example 283, (S)-2-(tert-butoxy)-2-(4,7-dimethyl-2-(6-methylnicotinoyl)-6-(p-tolyl)isoindolin-5-yl)acetic acid]
IC50: 13 nM

Cc1ccc(-c2c(C)c3c(c(C)c2[C@H](OC(C)(C)C)C(=O)O)CN(C(=O)c2cc(Cl)cc(Cl)c2)C3)cc1 [Example 271, (S)-2-(tert-butoxy)-2-(2-(3,5-dichlorobenzoyl)-4,7-dimethyl-6-(p-tolyl)isoindolin-5-yl)acetic acid]
IC50: 8 nM

Cc1cccc(F)c1C(=O)N1Cc2c(C)c(-c3cc(F)c4c(c3C)CCCO4)c([C@H](OC(C)(C)C)C(=O)O)c(C)c2C1 (atropisomer, axis not shown; (M)) [Example 197, (S)-2-(tert-butoxy)-2-((M)-6-(8-fluoro-5-methylchroman-6-yl)-2-(2-fluoro-6-methylbenzoyl)-4,7-dimethylisoindolin-5-yl)acetic acid]
IC50: 4 nM

Cc1ccc(-c2c(C)c3c(c(C)c2[C@H](OC(C)(C)C)C(=O)O)CN(C(=O)N2CCC(N4CCOCC4)CC2)C3)cc1 [Example 98, (S)-2-(tert-butoxy)-2-(4,7-dimethyl-2-(4-morpholinopiperidine-1-carbonyl)-6-(p-tolyl)isoindolin-5-yl)acetic acid]
IC50: 2300 nM

Cc1ccc(-c2c(C)c3c(c(C)c2[C@H](OC(C)(C)C)C(=O)O)CN(C(=O)N2CCC(F)(F)C2)C3)c(Cl)c1 [Example 314, (2S)-2-(tert-butoxy)-2-(6-(2-chloro-4-methylphenyl)-2-(3,3-difluoropyrrolidine-1-carbonyl)-4,7-dimethylisoindolin-5-yl)acetic acid]
IC50: 4 nM

Cc1c(-c2c(C)c3c(c(C)c2[C@H](OC(C)(C)C)C(=O)O)CN(c2nc4cc(F)ccc4o2)C3)cc(F)c2c1CCCO2 (atropisomer, axis not shown; (M)) [Example 204, (S)-2-(tert-butoxy)-2-((M)-6-(8-fluoro-5-methylchroman-6-yl)-2-(5-fluorobenzo[d]oxazol-2-yl)-4,7-dimethylisoindolin-5-yl)acetic acid]
IC50: 665 nM

COc1ccc(C(=O)N2Cc3c(C)c(-c4cc(F)c5c(c4C)CCCO5)c([C@H](OC(C)(C)C)C(=O)O)c(C)c3C2)cc1F (atropisomer, axis not shown; (M)) [Example 187, (S)-2-(tert-butoxy)-2-((M)-2-(3-fluoro-4-methoxybenzoyl)-6-(8-fluoro-5-methylchroman-6-yl)-4,7-dimethylisoindolin-5-yl)acetic acid]
IC50: 3 nM

From US10112899B2 (ViiV HEALTHCARE UK LIMITED, priority 2014, dated 2018)
